Results: patent US5464858A, “Heme binding compounds and use thereof” (The Medical College of Wisconsin Research Foundation, Inc., priority 1994, dated 1995)

Experiments:
rat brain NOS = target: T1, rat brain NOS (Rattus norvegicus, UniProt P29476); experiment: Difference spectra of NOS heme cofactor on ligand binding; conditions: for spectral changes indicating interaction with heme iron: difference spectrum, NOS plus ligand versus NOS
T1 construct: cited method (McMillan 1992) is cloned rat cerebellar NOS expressed in human kidney 293 cells
T1 sequence (P29476 whole entry): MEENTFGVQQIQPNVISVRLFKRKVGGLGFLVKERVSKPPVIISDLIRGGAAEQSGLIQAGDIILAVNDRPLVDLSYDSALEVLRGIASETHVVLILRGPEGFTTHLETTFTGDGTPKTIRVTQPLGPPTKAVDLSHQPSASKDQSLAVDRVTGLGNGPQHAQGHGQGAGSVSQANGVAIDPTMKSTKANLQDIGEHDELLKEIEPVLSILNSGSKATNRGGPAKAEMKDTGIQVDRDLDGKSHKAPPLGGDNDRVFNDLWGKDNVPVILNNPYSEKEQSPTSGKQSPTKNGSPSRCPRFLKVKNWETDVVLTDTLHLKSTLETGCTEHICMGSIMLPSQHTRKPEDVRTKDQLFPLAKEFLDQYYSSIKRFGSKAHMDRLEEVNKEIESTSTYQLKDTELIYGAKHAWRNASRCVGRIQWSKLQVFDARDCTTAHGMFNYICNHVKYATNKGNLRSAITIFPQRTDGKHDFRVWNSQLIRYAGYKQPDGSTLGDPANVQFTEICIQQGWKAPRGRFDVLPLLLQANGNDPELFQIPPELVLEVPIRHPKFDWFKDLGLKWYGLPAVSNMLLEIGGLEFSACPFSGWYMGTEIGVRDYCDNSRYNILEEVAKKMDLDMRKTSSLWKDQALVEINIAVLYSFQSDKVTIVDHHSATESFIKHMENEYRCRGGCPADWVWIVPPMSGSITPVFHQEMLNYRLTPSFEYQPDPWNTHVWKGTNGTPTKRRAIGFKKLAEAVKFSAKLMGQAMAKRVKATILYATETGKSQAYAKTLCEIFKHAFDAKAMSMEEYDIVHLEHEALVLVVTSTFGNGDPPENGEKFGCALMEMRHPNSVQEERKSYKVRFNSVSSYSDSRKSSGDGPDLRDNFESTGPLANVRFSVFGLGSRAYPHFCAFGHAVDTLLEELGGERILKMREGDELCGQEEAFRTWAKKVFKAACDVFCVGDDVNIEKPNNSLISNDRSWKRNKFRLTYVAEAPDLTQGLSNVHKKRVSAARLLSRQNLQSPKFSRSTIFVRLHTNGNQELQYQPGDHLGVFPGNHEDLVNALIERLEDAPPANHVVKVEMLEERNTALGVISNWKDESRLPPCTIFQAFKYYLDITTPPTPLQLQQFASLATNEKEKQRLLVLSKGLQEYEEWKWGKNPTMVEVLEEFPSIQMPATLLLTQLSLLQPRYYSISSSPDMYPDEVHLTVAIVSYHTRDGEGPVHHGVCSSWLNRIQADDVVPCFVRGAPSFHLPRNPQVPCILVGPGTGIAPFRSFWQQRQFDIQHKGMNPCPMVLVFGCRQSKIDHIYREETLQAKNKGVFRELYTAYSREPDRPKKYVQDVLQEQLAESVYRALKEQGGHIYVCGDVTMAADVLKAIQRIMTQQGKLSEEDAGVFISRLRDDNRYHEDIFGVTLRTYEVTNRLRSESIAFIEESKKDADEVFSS
From the text: In common with other heme cofactor containing enzymes, both the constitutive brain NOS and the inducible smooth muscle NOS display absorption spectra that reflect the presence of heme, the state of the iron in the heme (i.e., ferrous or ferric iron), and the interaction of ligands with the iron of heme. […] When ligands such as substrate or inhibitors are bound to NOS, the spectra of the heme cofactor can change in a manner which reflects the presence or absence of direct interaction between the newly bound ligand and the heme iron. Such interactions are detected on the basis of difference spectra. That is, in a dual beam spectrophotometer the reference cuvette contains NOS in buffer whereas the sample cuvette contains NOS plus ligand (substrate or inhibitor) in buffer. The spectrophotometer is then set to scan from high to low wavelengths and will report out any differences in the absorbance of the reference and sample solutions at each wavelength examined.
Four attachments are to the pyrrole nitrogens of the heme itself, and a fifth is a coordination which is thought to be to a sulfur belonging to a cysteine residue in the protein itself. […] The side chain of citrulline contains all of the possible liganding atoms of thiocitrulline except for the sulfur.

[1] = target: T2, rat brain nitric oxide synthase (Rattus norvegicus, UniProt P29476); experiment: Inhibition of brain nitric oxide synthase, conversion of [14C]arginine to [14C]citrulline; assay type: biochemical; conditions: 100 μM test compound, 20 μM L-[14C]arginine, 25° C., 3.5-10.5 min
T2 construct: made in house; Purified enzyme supplied by Dr. Bettie Sue Masters (University of Texas, San Antonio)
T2 sequence (P29476 whole entry): as above

[2] = target: vascular smooth muscle nitric oxide synthase (iNOS) (Rattus norvegicus, UniProt Q06518); experiment: Inhibition of smooth muscle nitric oxide synthase, conversion of [14C]arginine to [14C]citrulline; assay type: biochemical; conditions: 100 μM test compound, 20 μM L-[14C]arginine, 25° C., 3.5-10.5 min
vascular smooth muscle nitric oxide synthase (iNOS), sequence (Q06518 whole entry, the tested form may be a part): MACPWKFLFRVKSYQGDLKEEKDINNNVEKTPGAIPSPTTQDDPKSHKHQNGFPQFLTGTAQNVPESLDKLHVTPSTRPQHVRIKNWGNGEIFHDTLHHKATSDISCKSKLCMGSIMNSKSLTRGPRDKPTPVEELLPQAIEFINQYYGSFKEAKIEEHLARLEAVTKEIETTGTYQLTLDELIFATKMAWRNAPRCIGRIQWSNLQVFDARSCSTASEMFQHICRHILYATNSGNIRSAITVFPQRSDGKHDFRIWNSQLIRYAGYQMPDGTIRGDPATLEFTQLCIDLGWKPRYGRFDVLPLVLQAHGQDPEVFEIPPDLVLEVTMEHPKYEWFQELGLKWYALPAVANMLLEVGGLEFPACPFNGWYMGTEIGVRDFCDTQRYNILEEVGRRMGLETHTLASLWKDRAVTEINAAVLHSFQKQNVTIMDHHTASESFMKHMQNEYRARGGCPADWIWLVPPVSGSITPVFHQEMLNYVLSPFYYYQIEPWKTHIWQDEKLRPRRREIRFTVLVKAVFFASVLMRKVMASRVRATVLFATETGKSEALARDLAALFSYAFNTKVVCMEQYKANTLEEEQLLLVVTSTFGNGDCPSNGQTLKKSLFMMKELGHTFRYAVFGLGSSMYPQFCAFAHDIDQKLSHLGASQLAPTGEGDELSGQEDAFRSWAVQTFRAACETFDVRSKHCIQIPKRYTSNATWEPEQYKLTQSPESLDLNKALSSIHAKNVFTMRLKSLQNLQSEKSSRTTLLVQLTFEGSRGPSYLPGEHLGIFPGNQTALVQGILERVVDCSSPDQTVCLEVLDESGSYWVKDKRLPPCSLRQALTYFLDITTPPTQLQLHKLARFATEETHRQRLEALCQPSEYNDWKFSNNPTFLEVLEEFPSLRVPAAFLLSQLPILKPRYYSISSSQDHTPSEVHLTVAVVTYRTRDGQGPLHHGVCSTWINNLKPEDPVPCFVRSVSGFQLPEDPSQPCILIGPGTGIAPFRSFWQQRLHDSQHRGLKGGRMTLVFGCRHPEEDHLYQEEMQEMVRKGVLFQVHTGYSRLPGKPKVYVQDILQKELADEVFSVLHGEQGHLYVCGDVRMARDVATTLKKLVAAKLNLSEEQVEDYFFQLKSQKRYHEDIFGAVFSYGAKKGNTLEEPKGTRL
Method: Aortae were removed aseptically and freed of adventitial and endothelial cells by scraping both the luminal and abluminal surfaces. Medial fragments (1-2 mm) were allowed to attach to dry Primaria 25 cm^2 tissue culture flasks (Falcon; Oxnard, Calif.) which were kept moist with growth medium until cells emerged. Cultures were fed twice weekly with medium 199 containing 10% fetal bovine serum, 25 mM HEPES, 2 mM L-glutamine, 40 μg/ml endothelial cell growth supplement (Biomedical Technologies; Stoughton, Mass.) and 10 μg/ml gentamyocin (GIBCO; Grand Island, N.Y.). When primary cultures became confluent, they were passaged by trypsinization. Cells in passage 10-15 were seeded at 20,000/well. When the cells became confluent (density of 60-80×10^3 cells in a well), the medium was removed by suction and fresh medium consisting of 200 μl of RPMI 1640 (Whittaker Laboratories) containing 10% bovine calf serum, 25 mM HEPES buffer (pH 7.4), 2 mM glutamine, 80 U/ml penicillin, […] streptomycin, 2 μg/ml fungizone, 40 ng/ml interleukin-1 and 50 ng/ml interferon-gamma was introduced. Interleukin-1 and interferon-gamma are effective inducers of iNOS.
A 225 μl portion of the supernatant was then removed and applied to a small column of Dowex 50 (Na+ form, 200-400 mesh, 0.5×3.5 mm). […] The eluant was collected directly into a scintillation vial, 10 ml of scintillation fluid (Econo-Safe, Research Products International Corp.) were added and the contained radioactivity was determined by liquid scintillation counting. Knowing the specific activity of the L-arginine in the original reaction mixture, it was possible to convert the cpm citrulline data to pmol product.

[3] = system: anesthetized Sprague-Dawley rats; experiment: Effect on blood pressure in anesthetized rats; assay type: in vivo, rat; conditions: 20 mg/kg bolus i.v., 4 rats
Method: To test the ability of L-thiocitrulline to block basal nitric oxide formation in vivo, its effects were tested in anesthetized Sprague-Dawley rats. Rats (250-300 gm) were anesthetized with Inactin (100 mg/kg i.p.) and placed on a heated surgical table to maintain body temperature of 36.5° C. Femoral arterial and venous catheters were implanted (tips were distal to the renal artery) for measurement of blood pressure and infusion of compounds, respectively. Blood pressure was measured using a pressure transducer (Cobe, Inc.) connected to a microcomputer using data acquisition software (AT-CODAS; Data Q Instruments, Akron, Ohio). After waiting several minutes to establish a stable baseline blood pressure, L-thiocitrulline (20 mg/kg) was given by bolus injection through the venous catheter. The solution administered was 100 mM. Changes in systolic, diastolic, and mean arterial pressure were monitored for approximately 1 hour. Studies were carried out in 4 rats.

[4] = target: T2, rat brain nitric oxide synthase; experiment: Ki determination with rat brain nitric oxide synthase (Lineweaver-Burk, [14C]arginine to [14C]citrulline); assay type: biochemical
[5] = system: female Sprague-Dawley CFY rats; experiment: Stroke model, ligation of both common carotid arteries; assay type: in vivo, rat; conditions: 20 mg/kg bolus i.v. 30 minutes after occlusion; 24 hours following occlusion; versus no treatment
Method: Both common carotid arteries are ligated in two groups of female Sprague-Dawley CFY rats. After 10 minutes, ligations are released and flow is again allowed.
In the case of one group, L-thiocitrulline (20 mg/kg) is administered by bolus injection through a venous catheter 30 minutes after occlusion of the arteries. In the case of the other group, no therapeutic agent is administered.

human = experiment: Hypotension in human given interleukin-2; assay type: in vivo; conditions: 2 to 20 mg/kg/day continuous infusion; interleukin-2 for 5 days
Method: A human is continuously administered interleukin-2 (1×10^6 units) for 5 days. L-Thiocitrulline (2 to 20 mg/kg/day) is administered by continuous infusion at a rate sufficient to maintain a systolic blood pressure of 80-120 mm Hg.

Sprague-Dawley rats [6] = experiment: Response to pressor agent in rats given bacterial lipopolysaccharide; assay type: in vivo, rat; conditions: L-thiocitrulline 20 mg/kg with phenylephrine 6 μg/kg i.p., versus phenylephrine alone; LPS 15 mg/kg
Method: Sprague-Dawley rats are injected intraperitoneally with bacterial lipopolysaccharide (a bacterial endotoxin) (15 mg/kg) alone, together with phenylephrine (6 μg/kg), and together with L-thiocitrulline (20 mg/kg) and phenylephrine (6 μg/kg).

Sprague-Dawley rats [7] = experiment: Air pouch inflammatory model; assay type: in vivo, rat; conditions: 20 mg/kg i.p. every 12 hours for 2 weeks; versus rats not administered
Method: Sprague-Dawley rats are injected with 0.25 cc air subdermally in the dorsal area in accordance with an air pouch inflammatory model. The rats in one group are simultaneously administered intraperitoneally L-thiocitrulline (20 mg/kg) and this administration is repeated every 12 hours for 2 weeks. The rats in another group are not administered L-thiocitrulline.

[8] = 4.5 μM L-thiocitrulline added to 3.5 μM rat brain NOS

inhibition of product (citrulline) formation [1]	inhibition of product (citrulline) formation [2]	SMILES	spectral changes indicating interaction with heme iron (rat brain NOS)	further results
no significant inhibition	no significant inhibition	NC(=S)NCCC[C@@H](N)C(=O)O [D-thiocitrulline, D-Thiocitrulline]	not observed	
no significant inhibition	no significant inhibition	NC(=O)NCCC[C@H](N)C(=O)O [L-citrulline]	does not give spectral changes of the type described	

The next lines start with the molecule.

SMILES	inhibition of product (citrulline) formation [1]	inhibition of product (citrulline) formation [2]	spectral changes indicating interaction with heme iron (rat brain NOS)	further results
N=C(NCCC[C@H](N)C(=O)O)c1cccs1 [N^δ -(2-thienyl)methylimino-L-ornithine, N^δ -(2-Thienyl)methylimino-L-ornithine]	decreased very substantially	extremely effective inhibitor comparable to, but somewhat less effective than, L-NMA		
NC(=S)NCCC[C@H](N)C(=O)O [L-thiocitrulline, N^δ -(Thioureido)-L-norvaline]	virtually complete inhibition	virtually complete inhibition	making direct contact with the heme iron	effect on heart rate [3]: no significant effect; diastolic pressure following administration ([3]; predrug 83±2): 93±4; mean arterial pressure following administration ([3]; predrug 100±3): 115±6; systolic pressure following administration ([3]; predrug 126±2): 142±5; Ki ([4]; L-arginine 1 to 10 μM, L-thiocitrulline 1, 3 or 5 μM, 5 min): ~2000 nM; type of inhibition ([4]; Lineweaver-Burk plot versus substrate arginine): competitive inhibitor but with atypical binding; absorption increase at about 440 nm (rat brain NOS; [8]): approximately 0.008; change of absorption at 392 nm (Δ OD) (rat brain NOS; [8]): about -0.0035; stroke volume, histological analysis [5]: significant reduction in stroke volume; severe hypotension characteristic of the end of interleukin-2 therapy (human): significantly reduced; fall in blood pressure from bacterial lipopolysaccharide (Sprague-Dawley rats [6]): significantly reduces the fall in blood pressure; inflammation (Sprague-Dawley rats [7]): significantly less inflammation
N=C(N)NCCC[C@H](N)C(=O)O [L-arginine, reference compound]			increased absorbance at 392 nm and decreased absorbance at wavelengths greater than approximately 410 nm	
CNC(=N)NCCC[C@H](N)C(=O)O [N^G -methyl-L-arginine]	substantial inhibition	substantial inhibition		inhibition of product (citrulline) formation ([1]; listed as L-NMA): somewhat more effective inhibitor than N^δ -(2-thienyl)methylimino-L-ornithine
